# According to publication PMC9951859, “Investigation of α,ω-Disubstituted Polyamine-Cholic Acid Conjugates Identifies Hyodeoxycholic and Chenodeoxycholic Scaffolds as Non-Toxic, Potent Antimicrobials” (Antibiotics, 2023):
# Values joined by “and” are separate entries in the source; they are usually repeats but may differ in a detail not shown here. Equal entries are not always repeated. “Also recorded” adds a separate entry of the source. Where two headings read alike, the source gives them in different places.
# Assays:
# [1] = tested on: S. aureus MRSA (CF-Marseille); test: Broth microdilution MIC (CA-SFM), S. aureus MRSA (CF-Marseille); assay type: cell-based; settings: Staphylococcus aureus, 18 h
# Method: (§1) Additional antimicrobial evaluation against S. aureus (ATCC 25923), S. aureus MRSA (CF-Marseille) and Bacillus cereus (ATCC 11778) was determined in microplates using the standard broth dilution method in accordance with the recommendations of the Comité de l’AntibioGramme de la Société Française de Microbiologie (CA-SFM). Briefly, the minimal inhibitory concentrations (MICs) were determined with an inoculum of 10^5 CFU in 200 µL of MHB containing two-fold serial dilutions of each drug. […] To determine all MICs, the measurements were independently repeated in triplicate.
# [2] = tested on: S. aureus MRSA (CF-Marseille); test: Real time growth curves, S. aureus MRSA (CF-Marseille); assay type: cell-based, Staphylococcus aureus; settings: BHI, 1 to 19 h, at 3.2 μM (4 µg/mL) and 12.7 μM (16 µg/mL)
# Method: (§2) Solutions of compound 7e at concentrations of 2, 4 and 16 µg/mL were tested each in triplicate against S. aureus ATCC 25923, S. aureus MRSA (CF-Marseille) and Bacillus cereus ATCC 11778. Typically, in a 96 well plate was placed 10 µL of 40, 80 and 320 µg/mL stock solutions of compound 7e as well as 190 µL of a 5 × 10^5 CFU/mL of the selected bacterial suspension in brain heart infusion (BHI) broth. Positive controls containing only 200 µL of a 5 × 10^5 CFU/mL of bacterial suspension in BHI and negative controls containing only 200 µL of BHI broth were added. The plate was incubated at 37 °C in a TECAN Spark Reader […] and real time bacterial growth was followed with OD590 nm measurements every 10 min during 19 h.
# [3] = tested on: Acinetobacter baumannii ATCC 19606; test: Antimicrobial MIC assay (CO-ADD) against A. baumannii; assay type: cell-based
# Text: (§3) Antimicrobial evaluation against S. aureus (MRSA) (ATCC 43300), E. coli (ATCC 25922), K. pneumoniae (ATCC 700603), A. baumannii (ATCC 19606), C. albicans (ATCC 90028), and C. neoformans (ATCC 208821) was undertaken at the Community for Open Antimicrobial Drug Discovery at The University of Queensland (Australia) according to their standard protocols as reported previously.
# [4] = Cytotoxicity assay on HEK293; assay type: cell-based, human; settings: human, concentration at 50% cytotoxicity on HEK293, mean (n = 2), top dose tested 32 μg/mL
# Method: (§4) Cytotoxicity assays were conducted using the protocols previously reported.
# S. aureus ATCC 25923 [5] = test: Minimum bactericidal concentration test, S. aureus ATCC 25923; assay type: cell-based, Staphylococcus aureus
# Method: (§5) A pure culture of a specified microorganism was grown overnight, then diluted in growth-supporting broth (typically Mueller Hinton II broth) to a concentration between 1 × 10^5 and 1 × 10^6 CFU/mL. A stock dilution of the antimicrobial test compound was made at approximately 100 times the expected, previously determined MIC. Further 1:1 dilution was made in 96 well microtiter plates. All dilutions of the test compound were inoculated with equal volumes of the specified microorganism (typically 100 µL). […] An aliquot of the positive control was plated and used to establish a baseline concentration of the microorganism used. The microtiter plates were then incubated at 37 °C for 24 h. Turbidity indicates growth of the microorganism, and the MIC is the lowest concentration where no growth was visually observed. To determine the minimum bactericidal concentration (MBC), the dilution representing the MIC and at least two of the more concentrated test product dilutions was plated on a solidified agar plate to determine the bacterial viability. The MBC is the lowest concentration where no growth is encountered when compared to the MIC dilution.
# [6] = tested on: Staphylococcus aureus ATCC 43300 (MRSA); test: Antimicrobial MIC assay (CO-ADD) against S. aureus MRSA; assay type: cell-based; settings: Staphylococcus aureus, read-out: MIC S.a.
# Text: as §3
# [7] = tested on: Candida albicans ATCC 90028; test: Antimicrobial MIC assay (CO-ADD) against C. albicans; assay type: cell-based; settings: mean (n = 2)
# Text: as §3
# [8] = tested on: Bacillus cereus ATCC 11778; test: Real time growth curves, Bacillus cereus; assay type: cell-based
# Method: as §2
# [9] = tested on: Escherichia coli ATCC 25922; test: Antimicrobial MIC assay (CO-ADD) against E. coli; assay type: cell-based
# Text: as §3
# [10] = tested on: Pseudomonas aeruginosa ATCC 27853; test: Antimicrobial MIC assay (CO-ADD) against P. aeruginosa; assay type: cell-based
# [11] = tested on: Bacillus cereus ATCC 11778; test: Broth microdilution MIC (CA-SFM), Bacillus cereus; assay type: cell-based; settings: ATCC11778; classical microdilution, Bacillus cereus ATCC 11778, 18 h at 37 °C
# Method: as §1
# E. coli ATCC 25922 = test: Antibiotic enhancement of erythromycin; assay type: cell-based, Escherichia coli; settings: erythromycin at 2 μg/mL
# Method: (§6) Restoring enhancer concentrations were determined with an inoculum of 5 × 10^5 CFU in […] of MH broth containing two-fold serial dilutions of each derivative in the presence of either doxycycline or erythromycin at 2 μg/mL. […] These measurements were independently repeated in triplicate.
# [12] = tested on: Bacillus cereus ATCC 11778; test: Minimum bactericidal concentration test, Bacillus cereus; assay type: cell-based
# Method: as §5
# [13] = tested on: S. aureus MRSA (CF-Marseille); test: Minimum bactericidal concentration test, S. aureus MRSA (CF-Marseille); assay type: cell-based, Staphylococcus aureus
# Method: as §5
# human red blood cells = test: Hemolytic assay; assay type: cell-based; settings: concentration at 10% hemolytic activity on human red blood cells, mean (n = 2), top dose tested 32 μg/mL
# Method: Hemolytic assays were conducted using the protocols previously reported.
# S. aureus = test: ATP release bioluminescence assay; assay type: cell-based, Staphylococcus aureus; settings: followed over 30 min after exposure, CTAB (1%) positive control
# Method: Solutions of the test compound 7e were prepared in DMSO at various concentrations. A suspension of growing S. aureus to be studied in Muller-Hinton II broth was prepared and incubated at 37 °C. An aliquot (90 µL) of this suspension was added to 10 µL of test compound solution and vortexed for 10 s. Luciferin–luciferase reagent (Yelen, France; 50 µL) was immediately added to this mixture, and luminescent signal quantified with an Infinite M200 microplate reader (Tecan) over a 30 min period; ATP concentration was quantified using internal sample addition. A similar procedure was used for the CTAB positive control.
# S. aureus ATCC 25923 [14] = test: Broth microdilution MIC (CA-SFM), S. aureus ATCC 25923; assay type: cell-based; settings: Staphylococcus aureus, ATCC25923; classical microdilution, S. aureus ATCC 25923, 18 h at 37 °C
# Method: as §1
# [15] = tested on: Klebsiella pneumoniae ATCC 700603; test: Antimicrobial MIC assay (CO-ADD) against K. pneumoniae; assay type: cell-based
# Text: as §3
# [16] = tested on: Cryptococcus neoformans ATCC 208821; test: Antimicrobial MIC assay (CO-ADD) against C. neoformans; assay type: cell-based
# Text: as §3
# S. aureus ATCC 25923 [17] = test: Real time growth curves, S. aureus ATCC 25923; assay type: cell-based, Staphylococcus aureus
# Method: as §2
# P. aeruginosa ATCC 27853 = test: Antibiotic enhancement of doxycycline; assay type: cell-based, Pseudomonas aeruginosa; settings: doxycycline at 2 μg/mL
# Method: as §6
# erythrocytes = tested on: erythrocytes; set-up: method as in PMID 11806717; settings: hemolytic activity; read-out: EC50 for hemoglobin release from erythrocytes; cited from earlier work
# [18] = tested on: HEK293 human embryonic kidney cells; test: Cytotoxicity assay on HEK293; assay type: cell-based; settings: concentration at 50% cytotoxicity on HEK293; mean (n = 2); top dose tested 32 μg/mL
# Method: as §4
# [19] = tested on: B lymphoma Wehi-231 cells; set-up: method as in PMID 19883637; settings: read-out: EC50 for propidium iodide entry; cited from earlier work
smiles,measurement,setting,value
"C[C@H](CCC(=O)NCCCNCCCCCCCCCCNCCCNC(=O)CC[C@@H](C)[C@H]1CC[C@H]2[C@@H]3C[C@H](O)[C@@H]4C[C@H](O)CC[C@]4(C)[C@H]3CC[C@]12C)[C@H]1CC[C@H]2[C@@H]3C[C@H](O)[C@@H]4C[C@H](O)CC[C@]4(C)[C@H]3CC[C@]12C.O=C(O)C(F)(F)F.O=C(O)C(F)(F)F [Compound 7e, N^1,N^10-Bis(3-((R)-4-((3R,5R,6S,8S,9S,10R,13R,14S,17R)-3,6-dihydroxy-10,13-dimethylhexadecahydro-1H-cyclopenta[a]phenanthren-17-yl)pentanamido)propyl)decane-1,10-diaminium 2,2,2-trifluoroacetate]",MIC,[1],3.2 µM and 4 µg/mL
same,real time growth inhibition (OD 590 nm),[2],inhibited all three strains
same,MIC,"[3]; Acinetobacter baumannii, ATCC19606, read-out: MIC A.b.",> 25 µM
same,IC50,[4]; HEK293 human embryonic kidney cells,> 25 µM
same,MBC/MIC ratio,S. aureus ATCC 25923 [5]; S. aureus ATCC 25923 (one of three Gram-positive strains),approximately one
same,minimum bactericidal concentration (MBC),"S. aureus ATCC 25923 [5]; S. aureus ATCC 25923, stated relative to MIC (1.6 μM, 2 μg/mL)",The same values were observed
same,MIC,[6],≤ 0.2 µM
same,MIC,"[7]; Candida albicans, ATCC90028, read-out: MIC C.a., Candida albicans ATCC 90028",≤ 0.2 µM
same,time after which growth was exhibited,"[8]; B. cereus, BHI, lowest tested concentration 1.6 μM (2 µg/mL)",10 h
same,real time growth inhibition (OD 590 nm),"[8]; Bacillus cereus ATCC 11778, BHI, 1 to 19 h, at 3.2 μM (4 µg/mL) and 12.7 μM (16 µg/mL)",inhibited all three strains
same,MIC,"[9]; Escherichia coli, ATCC25922, read-out: MIC E.c.",> 25 µM
same,MIC,"[10]; Pseudomonas aeruginosa, ATCC27853, read-out: MIC P.a.",> 25 µM
same,MIC,[11],3.2 µM and 4 µg/mL
same,enhancement of antibiotic activity of erythromycin,E. coli ATCC 25922,No enhancement was observed
same,MBC/MIC ratio,[12]; Bacillus cereus ATCC 11778 (one of three Gram-positive strains),approximately one
same,minimum bactericidal concentration (MBC),"[12]; Bacillus cereus ATCC 11778, stated relative to MIC (3.2 μM, 4 μg/mL)",The same values were observed
same,MBC/MIC ratio,[13]; S. aureus MRSA (CF-Marseille) (one of three Gram-positive strains),approximately one
same,minimum bactericidal concentration (MBC),"[13]; S. aureus MRSA (CF-Marseille), stated relative to MIC (3.2 μM, 4 μg/mL)",The same values were observed
same,Hemolysis (HC10),human red blood cells,>25 µM
same,"ATP release (extracellular ATP, bioluminescence)",S. aureus,inability of 7e to induce ATP release; also recorded: failed to cause ATP release
same,MIC,S. aureus ATCC 25923 [14],1.6 µM and 2 µg/mL
same,MIC,"[15]; Klebsiella pneumoniae, ATCC700603, read-out: MIC K.p.",> 25 µM
same,MIC,"[16]; Cryptococcus neoformans, ATCC208821, read-out: MIC C.n.",0.8 µM
same,time after which growth was exhibited,"S. aureus ATCC 25923 [17]; S. aureus (strain not stated), BHI, lowest tested concentration 1.6 μM (2 µg/mL)",13 h
same,real time growth inhibition (OD 590 nm),"S. aureus ATCC 25923 [17]; S. aureus ATCC 25923, BHI, 1 to 19 h, at 3.2 μM (4 µg/mL) and 12.7 μM (16 µg/mL)",inhibited all three strains
same,enhancement of antibiotic activity of doxycycline,P. aeruginosa ATCC 27853,No enhancement was observed
"CC(C)[C@@H](CC[C@@H](C)[C@H]1CC[C@H]2[C@@H]3[C@H](O)C[C@H]4C[C@@H](NCCCNCCCCN)CC[C@]4(C)[C@H]3CC[C@]12C)OS(=O)(=O)O [Compound 1, Squalamine, reference compound]",EC50,erythrocytes,80 µM
same,MIC,"[3]; ATCC19606, Acinetobacter baumannii ATCC 19606, mean (n = 2), read-out: MIC A.b.",≤ 0.28 µM
same,MIC,"[3]; Acinetobacter baumannii ATCC 19606, mean (n = 2), read-out: MIC A.b.",≤0.28 µM
same,Cytotoxicity (IC50),[18],lack of toxicity indicators
same,IC50,[4],> 36 µM
same,MIC,"[7]; ATCC90028, Candida albicans ATCC 90028, read-out: MIC C.a.",4.5 µM
same,MIC,"[9]; ATCC25922, Escherichia coli ATCC 25922, mean (n = 2), read-out: MIC E.c.",≤ 0.28 µM
same,MIC,"[9]; Escherichia coli ATCC 25922, mean (n = 2), read-out: MIC E.c.",≤0.28 µM
same,MIC,"[10]; ATCC27853, Pseudomonas aeruginosa ATCC 27853, mean (n = 2), read-out: MIC P.a.",18 µM
same,EC50,[19],51 µM
same,Hemolysis (HC10),human red blood cells,>36 µM
same,Hemolysis (HC10),human red blood cells; listed as squalamine,lack of toxicity indicators
same,MIC,"[15]; ATCC700603, Klebsiella pneumoniae ATCC 700603, mean (n = 2), read-out: MIC K.p.",≤ 0.28 µM
same,MIC,"[15]; Klebsiella pneumoniae ATCC 700603, mean (n = 2), read-out: MIC K.p.",≤0.28 µM
same,MIC,"[16]; ATCC208821, Cryptococcus neoformans ATCC 208821, mean (n = 2), read-out: MIC C.n.",0.56 µM
